Results published in patent US20040242886A1, “Monocyclic diazodioxide based Bcl-2 protein antagonists related applications” (priority 2003, published 2004).
Like-named read-outs stand apart in the source and are kept apart here.

Legend:
[1] = tested on: A549 human lung cells expressing low Bcl-2 and high Bcl-XL levels; assay: Acute cytotoxicity (apoptotic activity), Alamar Blue viability, A549 cells; type: cell-based
Procedure: (§1) The biological activity of the compounds provided herein were assessed in cellular system by the method similar to the one described by Amundson et al. (Amundson, S. A. et al, Cancer Research 2000, 60, 6101-6110), which is incorporated herein by reference in its entirety. The compounds were tested for acute cytotoxicity (apoptotic activity) using two human cancer cell lines expressing high levels of either Bcl-2 or BCl-XL. HL60, human leukemic cells expressing high Bcl-2 and low BCl-XL levels, and A549 human lung cells expressing low Bcl-2 and high BCl-XL levels, were incubated with the compounds at concentrations between 0.5 and 1000 μg/mL for 4 hours at 37° C., 5% CO2. The number of viable cells were measured by mitochondrial transformation of Alamar Blue to a fluorescent dye. LC50 values for each test compound and controls are provided in the individual examples that follow.
(§2) The compounds provided herein were tested for acute cytoxicity (apoptotic activity) using two human cancer cell lines expressing high levels of either Bcl-2 or BCl-XL. HL-60 cells expressing high Bcl-2 and low Bcl-XL levels, and A549 human lung cells expressing low Bcl-2 and high Bcl-XL levels were incubated with the compounds provided herein at concentrations between 0.5 and 1000 μg/mL for 4 hours at 37° C., 5% CO2. The number of viable cells were measured by mitochondrial transformation of Alamar Blue to a fluorescent dye. As negative controls, the compounds were tested against the cell lines with low levels of Bcl-2 expression, viz., MDA-453 cells. LC50 values for each compound and controls were determined.

[2] = tested on: HL60, human leukemic cells expressing high Bcl-2 and low Bcl-XL levels; assay: Acute cytotoxicity (apoptotic activity), Alamar Blue viability, HL-60 cells; type: cell-based
Procedure: as §1, §2

cell = conditions: cited from earlier work
[3] = Homo sapiens, A549, 4 h; read-out: LC 50 (μM) A549
[4] = Homo sapiens, HL-60, 4 h; read-out: LC 50 (μM) HL-60
[5] = Homo sapiens, A549; 4 hours at 37° C.; read-out: LC50 value in A549 cell lines
[6] = Homo sapiens, HL-60; 4 hours at 37° C.; read-out: LC50 value in HL-60 cell lines

Row | Structure (SMILES) | CC50 [1, 3] [µM] | CC50 [2, 4] [µM] | also measured
1 | O=S(=O)(c1cc[n+]([O-])cc1)c1ccc(S(=O)(=O)C2CCCCC2)[n+]([O-])n1 [compound 53] | > 200 | 50 to 200 | 
2 | [O-][n+]1nc(Sc2ccccc2)ccc1Sc1ccccc1 [compound 5] |  | > 200 | 
3 | O=S(=O)(Cc1ccccc1)c1ccc(S(=O)(=O)Cc2ccccc2)[n+]([O-])n1 [compound 14] | > 200 | > 200 | 
4 | [O-][n+]1nc(Oc2ccccc2)ccc1Oc1ccccc1 [Example 2, 3,6-diphenoxvpyridazine-1-oxide] |  |  | CC50 ([1]; 4 hours at 37° C.; read-out: LC50 value in A549 cell lines): > 500 µM; CC50 ([2]; 4 hours at 37° C.; read-out: LC50 value in HL-60 cell lines): > 500 µM
5 | O=S(=O)(c1ccc(S(=O)(=O)C2CCCCC2)[n+]([O-])n1)C1CCCCC1 [Example 3, 3,6-bis-cyclohexanesulfonyl-pyridazine-1-oxide] |  |  | CC50 [1, 5]: 192 µM; CC50 [2, 6]: 32.3 µM
6 | O=S(=O)(c1ccc(-c2ccccc2)n[n+]1[O-])C1CCCCC1 [compound 61] | > 200 | > 200 | 
7 | COc1ccccc1S(=O)(=O)c1ccc(S(=O)(=O)c2ccccc2OC)[n+]([O-])n1 [compound 22] | > 200 | < 50 | 
8 | CCS(=O)(=O)c1ccc(S(=O)(=O)C2CCCCC2)[n+]([O-])n1 [compound 36] | 50 to 200 | < 50 | 
9 | [O-][n+]1nc(Cl)ccc1Cl [compound 2] | > 200 | < 50 | 
10 | O=S(=O)(c1ccc(S(=O)(=O)C2CCCCC2)[n+]([O-])n1)C1CCCCC1 [compound 20] | > 200 | < 50 | 
11 | [O-][n+]1nc(Cl)c2ccccc2c1Cl [compound 33] | 50 to 200 | 50 to 200 | 
12 | Cc1cc(Cl)[n+]([O-])nc1Cl [compound 17] | > 200 | > 200 | 
13 | COc1ccc(Sc2ccc(Sc3ccc(OC)cc3)[n+]([O-])n2)cc1 [compound 10] | > 200 | > 200 | 
14 | O=S(=O)(c1ccccc1)c1ccc(Cl)n[n+]1[O-] [compound 40] | > 200 | < 50 | 
15 | CCCCS(=O)(=O)c1ccc(S(=O)(=O)CCCC)[n+]([O-])n1 [compound 24] | > 200 | 50 to 200 | 
16 | CCSc1ccc(S(=O)(=O)C2CCCCC2)n[n+]1[O-] [compound 38] | > 200 | > 200 | 
17 | O=S(=O)(c1ccc(S(=O)(=O)C2CCCC2)[n+]([O-])n1)C1CCCC1 [compound 13] | > 200 | < 50 | 
18 | CCCC[C@H]1C(=O)O[C@H](C)[C@H](NC(=O)c2cccc(NC=O)c2O)C(=O)O[C@@H](C)[C@@H]1OC(=O)CC(C)C [compound 2] |  |  | CC50 (cell): 1.2 µM
19 | Clc1ccc(Cl)nn1 [compound 1] | > 200 | > 200 | 
20 | O=[N+]([O-])c1ccc(Sc2ccc(Sc3ccc([N+](=O)[O-])cc3)nn2)cc1 [compound 9] |  |  | CC50 ([1]; Homo sapiens, A549, 4 h, read-out: LC 50 (μM) A549): > 200 µM; CC50 ([2]; Homo sapiens, HL-60, 4 h, read-out: LC 50 (μM) HL-60): > 200 µM

Row | Structure (SMILES) | CC50 [1, 3] [µM] | CC50 [2, 4] [µM] | also measured
21 | Nc1ccc(S(=O)(=O)c2ccc(S(=O)(=O)C3CCCCC3)[n+]([O-])n2)cc1 [compound 55] | > 200 | < 50 | 
22 | O=S(=O)(c1ccc(S(=O)(=O)C2CCCCC2)[n+]([O-])n1)c1ccccc1Cl [compound 42] | 50 to 200 | < 50 | 
23 | Cc1cccc(S(=O)(=O)c2ccc(S(=O)(=O)c3cccc(C)c3)[n+]([O-])n2)c1 [compound 18] | > 200 | > 200 | 
24 | O=S(=O)(c1ccncc1)c1ccc(S(=O)(=O)C2CCCCC2)[n+]([O-])n1 [compound 60] | > 200 | 50 to 200 | 
25 | CS(=O)(=O)Nc1ccc(S(=O)(=O)c2ccc(S(=O)(=O)C3CCCCC3)[n+]([O-])n2)cc1 [compound 58] | > 200 | > 200 | 
26 | O=S(=O)(c1ccccc1)c1ccc(S(=O)(=O)C2CCCCC2)[n+]([O-])n1 [Example 5, 3-benzenesulfonyl-6-cyclohexanesulfonyl-pyridazine-1-oxide] |  |  | CC50 [1, 5]: 279 µM; CC50 [2, 6]: 32.9 µM
27 | CC(C)(C)S(=O)(=O)c1ccc(S(=O)(=O)C(C)(C)C)[n+]([O-])n1 [compound 25] | > 200 | 50 to 200 | 
28 | O=S(=O)(c1ccccc1)c1ccc(S(=O)(=O)C2CCCCC2)[n+]([O-])n1 [compound 34] | > 200 | < 50 | 
29 | [O-][n+]1nc(Sc2ccccn2)ccc1Sc1ccccn1 [compound 7, reference compound] | > 200 | > 200 | 
30 | Cc1cc(Cl)n[n+]([O-])c1Cl [compound 23] | > 200 | > 200 | 
31 | [O-][n+]1ccccc1Cl [compound 29] | > 200 | > 200 | 
32 | [O-][n+]1nc(Cl)ccc1SC1CCCCC1 [compound 26] | > 200 | > 200 | 
33 | [O-][n+]1nc(Sc2ccccc2)ccc1Sc1ccccc1 [pyridazine, 3,6-bis(phenylthio)-, 1-oxide] |  |  | CC50 [2, 6]: 58.9 µM
34 | [O-][n+]1nc(Oc2ccccc2)ccc1Oc1ccccc1 [compound 4] | > 200 | > 200 | 
35 | COc1ccc(Cl)[n+]([O-])n1 [compound 3] | > 200 | > 200 | 
36 | CC(=O)Oc1ccc(S(=O)(=O)c2ccc(S(=O)(=O)C3CCCCC3)[n+]([O-])n2)cc1 [compound 51] | > 200 | 50 to 200 | 
37 | O=S(=O)(c1ccccc1)c1ccc(S(=O)(=O)C2CCCCC2)n[n+]1[O-] [compound 41] | > 200 | < 50 | 
38 | [O-][n+]1cc(Cl)ccc1Cl [compound 35] | > 200 | > 200 | 
39 | CCOc1ccc(S(=O)(=O)C2CCCCC2)[n+]([O-])n1 [compound 31] | > 200 | > 200 | 
40 | Cc1ccc(S(=O)(=O)c2ccc(S(=O)(=O)C3CCCCC3)[n+]([O-])n2)cc1 [compound 49] | > 200 | 50 to 200 | 

Row | Structure (SMILES) | CC50 [1, 3] [µM] | CC50 [2, 4] [µM] | also measured
41 | O=S(=O)(c1ccccc1)c1n[n+]([O-])c(O)c2ccccc12 [compound 44] | > 200 | > 200 | 
42 | O=C(O)c1ccc(S(=O)(=O)c2ccc(S(=O)(=O)C3CCCCC3)[n+]([O-])n2)cc1 [compound 57] | > 200 | > 200 | 
43 | O=S(=O)(c1ccccc1)c1ccc(S(=O)(=O)c2ccccc2)[n+]([O-])n1 [Example 1, 3,6-bis(benzenesulfonyl)pyridazine-1-oxide] |  |  | CC50 [1, 5]: 268 µM; CC50 [2, 6]: 20.5 µM
44 | O=S(=O)(c1ccc(Sc2ccccc2)n[n+]1[O-])C1CCCCC1 [compound 30] | > 200 | > 200 | 
45 | COC(=O)CCS(=O)(=O)c1ccc(S(=O)(=O)C2CCCCC2)[n+]([O-])n1 [compound 48] | > 200 | < 50 | 
46 | O=S(=O)(c1ccc(O)cc1)c1ccc(S(=O)(=O)C2CCCCC2)[n+]([O-])n1 [compound 50] | > 200 | 50 to 200 | 
47 | COC(=O)c1ccccc1S(=O)(=O)c1ccc(S(=O)(=O)C2CCCCC2)[n+]([O-])n1 [compound 43] | > 200 | < 50 | 
48 | Cc1ccccc1S(=O)(=O)c1ccc(S(=O)(=O)c2ccccc2C)[n+]([O-])n1 [compound 19] | > 200 | 50 to 200 | 
49 | COC(=O)c1ccc(S(=O)(=O)c2ccc(S(=O)(=O)C3CCCCC3)[n+]([O-])n2)cc1 [compound 59] | > 200 | < 50 | 
50 | O=S(=O)(CCO)c1ccc(S(=O)(=O)C2CCCCC2)[n+]([O-])n1 [compound 47] | > 200 | > 200 | 
51 | O=S(=O)(c1ccc(Cl)n[n+]1[O-])C1CCCCC1 [Example 4, 3-chloro-6-cyclohexanesulfonyl-pyridazine-1-oxide] |  |  | CC50 [1, 5]: 188 µM; CC50 [2, 6]: 20.2 µM
52 | CCS(=O)(=O)c1ccc(S(=O)(=O)CC)[n+]([O-])n1 [compound 12] | 50 to 200 | 50 to 200 | 
53 | O=C(O)c1ccccc1Sc1ccc(SC2CCCCC2)[n+]([O-])n1 [compound 46] | > 200 | > 200 | 
54 | CC(=O)NCCS(=O)(=O)c1ccc(S(=O)(=O)C2CCCCC2)[n+]([O-])n1 [compound 56] | > 200 | > 200 | 
55 | CCS(=O)(=O)c1n[n+]([O-])c(OC(=O)c2cccc(Cl)c2)c2ccccc12 [compound 45] | > 200 | > 200 | 
56 | O=S(=O)(c1ccc(Cl)n[n+]1[O-])C1CCCCC1 [compound 28] | > 200 | < 50 | 
57 | O=S(=O)(c1ccc(Cl)c[n+]1[O-])C1CCCCC1 [compound 37] | > 200 | > 200 | 
58 | COc1ccccc1S(=O)(=O)c1ccc(S(=O)(=O)C2CCCCC2)[n+]([O-])n1 [compound 39] | 50 to 200 | < 50 | 
59 | COc1cccc(S(=O)(=O)c2ccc(S(=O)(=O)c3cccc(OC)c3)[n+]([O-])n2)c1 [compound 21] | > 200 | > 200 | 
